Test results as given in patent US11123340B2, “Small-molecule UT-A-selective urea transport inhibitors” (The Regents of the University of California, priority 2014, dated 2021).

What was measured:
rat UT-A1 = target: T1, rat UT-A1 (Rattus norvegicus, UniProt Q62668); assay: In vitro functional studies of UT-A1 inhibition (reversibility, urea competition, kinetics); assay type: cell-based; conditions: for Mechanism of inhibition of urea transport: urea concentration-dependence of apparent IC50
T1 construct: expressed in transfected cells; host or cells: MDCK cells stably co-expressing rat UT-A1, human AQP1 and YFP-H148Q/V163S
T1 sequence (Q62668 1-929): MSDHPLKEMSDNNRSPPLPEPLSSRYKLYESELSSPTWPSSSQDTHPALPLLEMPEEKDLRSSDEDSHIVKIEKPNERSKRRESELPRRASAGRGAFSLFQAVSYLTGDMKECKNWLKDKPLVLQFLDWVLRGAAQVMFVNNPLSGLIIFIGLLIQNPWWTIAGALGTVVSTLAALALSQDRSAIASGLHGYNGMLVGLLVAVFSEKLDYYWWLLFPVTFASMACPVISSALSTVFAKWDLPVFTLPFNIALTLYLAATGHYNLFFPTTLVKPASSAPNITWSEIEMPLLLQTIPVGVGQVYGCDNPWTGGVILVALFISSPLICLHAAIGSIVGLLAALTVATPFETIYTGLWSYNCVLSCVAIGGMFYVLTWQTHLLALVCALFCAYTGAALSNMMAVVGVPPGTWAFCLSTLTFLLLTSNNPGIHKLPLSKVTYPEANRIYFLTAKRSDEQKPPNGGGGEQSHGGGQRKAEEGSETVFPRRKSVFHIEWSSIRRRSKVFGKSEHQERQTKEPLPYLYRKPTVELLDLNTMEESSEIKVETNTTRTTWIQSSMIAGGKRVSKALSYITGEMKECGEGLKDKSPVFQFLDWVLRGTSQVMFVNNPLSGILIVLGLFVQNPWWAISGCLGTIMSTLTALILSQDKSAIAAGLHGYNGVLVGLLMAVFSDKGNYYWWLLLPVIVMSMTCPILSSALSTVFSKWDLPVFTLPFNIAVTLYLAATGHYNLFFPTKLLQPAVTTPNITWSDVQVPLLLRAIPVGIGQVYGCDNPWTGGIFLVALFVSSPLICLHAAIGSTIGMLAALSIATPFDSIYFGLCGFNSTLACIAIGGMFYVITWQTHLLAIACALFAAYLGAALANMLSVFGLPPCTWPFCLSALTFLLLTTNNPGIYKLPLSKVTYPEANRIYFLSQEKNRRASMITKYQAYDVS
Description: Reversibility of UT-A1 inhibition was tested by pre-incubating MDCK cells expressing rat UT-A1, YFP-H148Q/V163S and AQP1 with inhibitors for 15 min (at 3 μM) and then washing the cells with PBS prior to assay. The urea concentration-dependence of UT-A1 inhibition was studied from inhibitor concentration-response data using different of urea gradients at zero initial intracellular urea concentration, or after preincubation of cells with different concentrations of urea for 10 min prior to a 1,600 mM urea gradient. The kinetics of UT-A1 inhibition was measured by adding inhibitors (3 μM) at different time points (0 to 10 min) prior to assay.
Inhibitor reversibility was studied by incubation of the UT-A1-expressing cells with compounds for 15 min and washing, followed by assay of UT-A1 inhibition. UT-A1 urea transport after inhibitor washout was the same as before inhibitor addition for all compounds (FIG. 3A), indicating full reversibility. Inhibitor competition with urea, as might occur by steric hindrance if the inhibitor and urea occupied physically overlapping sites on the UT-A1 protein, was studied from the urea concentration-dependence of apparent inhibitor IC50. Studies were done with zero urea inside cells initially and different urea concentrations outside, and with different urea concentrations inside cells initially and the same inward urea gradient.
To further evaluate the potential site of inhibitor action, the kinetics of UT-A1 inhibition was measured by assay of UT-A1 inhibition at different times after compound addition. […] To assess inhibitor membrane permeability transport of UTAinh-E02 and UTAinh-F11 across MDCK monolayers grown on porous filters by LC/MS was measured. Transport of UTAinh-F11 was much faster than that of UTAinh-E02 (FIG. 3C, right lower panel), with computed transepithelial permeability coefficients of […] and 1.1×10^−5 cm/s, respectively. […]

MDCK cells = assay: Cell toxicity, Alamar blue assay; assay type: cell-based, canine; conditions: 24 h, up to 25 μM
Description: MDCK cells on black 96-well Costar microplates with clear plastic bottoms were cultured for 24 h at 37° C. and incubated with test compounds (0 to 25 μM) for 24 h. Cell viability was assayed using AlamarBlue (Pierce, Rockford, Ill.) in which the reagent was added to each well, incubated for 30 min, and absorbance measured at 590 nm. For short-circuit current measurement, snapwell inserts containing MDCK cells were mounted on Ussing chambers. Test compounds (20 μM) were incubated with MDCK cells at both apical and basolateral sides for 10 min at 37° C. prior to addition of 20 μM forskolin and then 100 μM ATP. The apical and basolateral chambers contained identical solutions: 120 mM NaCl, 5 mM KCl, 1 mM MgCl2, 1 mM CaCl2, 5 mM HEPES, 25 mM NaHCO3 and 10 mM glucose. Solutions were bubbled with 5% CO2/95% O2 and maintained at 37° C. […]
Compound toxicity was evaluated by compound incubation for 24 h with MDCK cell cultures followed by Alamar blue assay. […] To assess potential ion channel off-target effects, short-circuit current was measured in MDCK cells in response to cAMP (forskolin) and calcium (ATP) agonists (FIG. 5C, right), which depends on the actions of multiple anion (CFTR, calcium-activated chloride channels) and cation (K^+, Na^+) channels.

## CC(=O)Nc1ccc(-c2csc(-c3c[nH]c4ccccc34)n2)cc1 [UTA1inh-E02, N-(4-(2-(1H-indol-3-yl)thiazol-4-yl)phenyl)acetamide]
Rat UT-A1; 3 μM inhibitor, different times after addition
  Kinetics of UT-A1 inhibition: occurred over minutes
Rat UT-A1
  Mechanism of inhibition of urea transport: non-competitive
MDCK cells
  toxicity: little toxicity

## COc1ccc(C)cc1S(=O)(=O)Nc1ccc(Cl)c(N2CCCS2(=O)=O)c1 [UTA1inh-F11, N-[4-Chloro-3-(1,1-dioxido-1,2-thiazolidin-2-yl)phenyl]-2-methoxy-5-methylbenzene-sulfonamide]
Rat UT-A1
  Mechanism of inhibition of urea transport: non-competitive
MDCK cells
  toxicity: little toxicity
